Consider 11 compounds from patent US10350271B2, “Lipidated peptides for lowering blood glucose” (USTAV ORGANICKE CHEMIE A BIOCHEMIE AKADEMIE VED CR, V.V.I., priority 2014, dated 2019).

One assay deals with T1, rat PrRP receptor (Rattus norvegicus, UniProt Q64121).
T1 construct: host or cells: RC-4B/C rat pituitary cell line
T1 sequence (Q64121 1-370): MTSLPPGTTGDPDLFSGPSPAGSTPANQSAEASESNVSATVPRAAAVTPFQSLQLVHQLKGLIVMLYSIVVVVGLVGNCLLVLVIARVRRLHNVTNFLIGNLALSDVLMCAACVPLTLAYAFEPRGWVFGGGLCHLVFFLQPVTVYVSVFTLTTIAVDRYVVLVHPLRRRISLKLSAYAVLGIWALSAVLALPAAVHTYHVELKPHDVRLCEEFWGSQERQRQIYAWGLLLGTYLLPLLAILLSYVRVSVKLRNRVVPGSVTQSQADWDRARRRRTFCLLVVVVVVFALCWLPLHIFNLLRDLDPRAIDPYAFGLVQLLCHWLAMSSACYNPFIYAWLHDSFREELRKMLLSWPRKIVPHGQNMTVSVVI
Kind of assay: Competitive binding in RC-4B/C rat pituitary cells (125I-rat PrRP31). Conditions: affinity relative to PrRP31. How it is done:
(§1) Competitive binding experiments were performed according to Motulsky and Neubig (Motulsky, A., et al., “Analyzing radioligand binding data,” Curr Protoc Neurosci, Chapter 7, Unit 7.5, 2002). Binding experiments were conducted with rat pituitary cells, and with Chinese Hamster Ovary (CHO) cells as follows:
The rat pituitary cell line RC-4B/C (ATCC, Manassas, USA) was grown on 24-well plates which had their bottom coated with polyethyleneimine. The cells were grown to the optimal density of 300-450 thousand cells per well. The following agents were used for the experiment: binding buffer (20 mmol·l^−1 HEPES, Ph 7.4; 118 mmol·l^−1 NaCl, 4.7 mmol·l^−1 KCl, 5 mmol·l^−1 MgCl2, 5.5 mmol·l^−1 glucose, 1 mg/ml BSA, 0.1 BPTI), unlabeled analogs of PrRP (i.e. the analog being tested) at a final concentration between 10^−11 to 10^−4 mol·l^−1, and rat ^125I-PrRP31 (labeled with radioactive Iodine-125) at a final concentration of […] (Maixnerová et al., 2011).
(§2) Plates were incubated for 60 minutes at room temperature. After incubation, the cells were solubilized in 0.1 mol/l solution of NaOH, and the radioactivity bound to the cells was counted using a γ-counter. The experiments were performed in duplicate, and repeated at least three times.
(§3) Graph Pad Prism Software (San Diego, Calif., USA) was used for evaluating the competitive binding experiments. Nonlinear regression was performed using a onsite binding model.

Assay [1] concerns the target T2, human PrRP receptor GPR10 (Homo sapiens, UniProt P49683).
T2 construct: host or cells: CHO cells
T2 sequence (P49683 1-370): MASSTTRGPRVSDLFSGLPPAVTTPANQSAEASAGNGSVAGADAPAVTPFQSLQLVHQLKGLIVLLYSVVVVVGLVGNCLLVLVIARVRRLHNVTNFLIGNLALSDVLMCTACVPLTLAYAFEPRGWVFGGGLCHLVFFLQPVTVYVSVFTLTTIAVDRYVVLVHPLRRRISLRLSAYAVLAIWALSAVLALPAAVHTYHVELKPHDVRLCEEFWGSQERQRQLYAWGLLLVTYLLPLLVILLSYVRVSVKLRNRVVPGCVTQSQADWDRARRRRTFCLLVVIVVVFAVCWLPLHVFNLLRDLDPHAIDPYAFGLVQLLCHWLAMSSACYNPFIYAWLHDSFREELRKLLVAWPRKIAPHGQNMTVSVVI
The assay can be described thus: Competitive binding in CHO cells transfected with human GPR10 (human 125I-PrRP31). The following applies: affinity relative to PrRP31. How it is done: as §1
CHO cells transfected with human PrRP receptor GPR10 (Perkin Elmer, USA) were grown on 24-well plates coated with polyethyleneimine. The cells were grown to the optimal density of 40-80 thousand cells per well. The following agents were used for the experiment: binding buffer (25 mmol·l^−1 Tris, pH 7.4; 118 mmol·l^−1 NaCl, 10 mmol·l^−1 MgCl2, 10 mmol·l^−1 CaCl2, 5.5 mmol·l^−1 glucose, 0.5 mg/ml BSA), unlabeled analogs of PrRP (i.e. the analog being tested) at a final concentration between 10^−11 to 10^−4 mol·l^−1, and radiolabeled human ^125I-PrRP31 at a final concentration of 5×10^−11 mol·l^−1.
as §2, §3

Square brackets hold non-standard residues; d marks the D form. Ends that are not written are not given here. Peptide text beside a SMILES is read from it. * marks the point of attachment. Myristoyl = CCCCCCCCCCCCCC(=O)*; NMeA = CN[C@@H](C)C(=O)O; Nle = CCCC[C@H](N)C(=O)O; Sar = CNCC(=O)O

Regarding `CCCCCCCCCCCCCC(=O)N[C@H](C(=O)N1CCC[C@H]1C(=O)N[C@@H](CC(=O)O)C(=O)N[C@H](C(=O)N[C@@H](CC(N)=O)C(=O)N1CCC[C@H]1C(=O)N[C@@H](C)C(=O)N[C@@H](Cc1c[nH]c2ccccc12)C(=O)N[C@@H](Cc1ccc(O)cc1)C(=O)N[C@H](C(=O)NCC(=O)N[C@@H](CCCNC(=N)N)C(=O)N(C)CC(=O)N[C@H](C(=O)N[C@@H](CCCNC(=N)N)C(=O)N1CCC[C@H]1C(=O)N[C@H](C(=O)NCC(=O)N[C@@H](CCCNC(=N)N)C(=O)N[C@@H](Cc1ccccc1)C(N)=O)C(C)C)[C@@H](C)CC)[C@@H](C)O)[C@@H](C)CC)[C@@H](C)O` [Analog 28] (Myristoyl-TPDINPAWYTGR[Sar]IRPVGRF-NH2), the “% of PrRP31, RC-4B/C rat pituitary cells” value at rat PrRP receptor is 1541%. In addition, the “% of PrRP31, GPR10 human receptor transfected in CHO cells” value (shortened to “% of PrRP31 … in CHO cells”) in assay [1] is on record as 125%.

With `CC[C@H](C)[C@H](NC(=O)CNC(=O)[C@H](CCCNC(=N)N)NC(=O)[C@H](CO)NC(=O)[C@H](C)N(C)C(=O)[C@H](Cc1ccc(O)cc1)NC(=O)[C@H](Cc1c[nH]c2ccccc12)NC(=O)[C@H](C)NC(=O)[C@@H]1CCCN1C(=O)[C@H](CC(N)=O)NC(=O)[C@@H](NC(=O)[C@H](CC(=O)O)NC(=O)[C@@H]1CCCN1C(=O)[C@@H](N)[C@@H](C)O)[C@@H](C)CC)C(=O)N[C@@H](CCCNC(=N)N)C(=O)N1CCC[C@H]1C(=O)N[C@H](C(=O)NCC(=O)N[C@@H](CCCNC(=N)N)C(=O)N[C@@H](Cc1ccccc1)C(N)=O)C(C)C` [Analog 29] (H-TPDINPAWY[NMeA]SRGIRPVGRF-NH2), the “% of PrRP31, RC-4B/C rat pituitary cells” value on rat PrRP receptor is 10%. The “% of PrRP31 … in CHO cells” value in assay [1] turned out to be 45%.

`CCCCCCCCCCCCCC(=O)N[C@H](C(=O)N1CCC[C@H]1C(=O)N[C@@H](CC(=O)O)C(=O)N[C@H](C(=O)N[C@@H](CC(N)=O)C(=O)N1CCC[C@H]1C(=O)N[C@@H](C)C(=O)N[C@@H](Cc1c[nH]c2ccccc12)C(=O)N[C@@H](Cc1ccc(O)cc1)C(=O)N(C)[C@@H](C)C(=O)N[C@@H](CO)C(=O)N[C@@H](CCCNC(=N)N)C(=O)NCC(=O)N[C@H](C(=O)N[C@@H](CCCNC(=N)N)C(=O)N1CCC[C@H]1C(=O)N[C@H](C(=O)NCC(=O)N[C@@H](CCCNC(=N)N)C(=O)N[C@@H](Cc1ccccc1)C(N)=O)C(C)C)[C@@H](C)CC)[C@@H](C)CC)[C@@H](C)O` [Analog 30] (Myristoyl-TPDINPAWY[NMeA]SRGIRPVGRF-NH2): at rat PrRP receptor, the “% of PrRP31, RC-4B/C rat pituitary cells” value turned out to be 1072%. Further, the “% of PrRP31 … in CHO cells” value in assay [1] stood at 185%.

Take `CCCCCCCCCCCCCC(=O)N[C@H](C(=O)N1CCC[C@H]1C(=O)N[C@@H](CC(=O)O)C(=O)N[C@H](C(=O)N[C@@H](CC(N)=O)C(=O)N1CCC[C@H]1C(=O)N[C@@H](C)C(=O)N[C@@H](Cc1c[nH]c2ccccc12)C(=O)N[C@@H](Cc1ccc(O)cc1)C(=O)N[C@H](C(=O)NCC(=O)N[C@@H](CCCNC(=N)N)C(=O)NCC(=O)N[C@@H](C)C(=O)N[C@@H](CCCNC(=N)N)C(=O)N1CCC[C@H]1C(=O)N[C@@H](Cc1ccccc1)C(=O)NCC(=O)N[C@@H](CCCNC(=N)N)C(=O)N[C@@H](Cc1ccccc1)C(N)=O)[C@@H](C)O)[C@@H](C)CC)[C@@H](C)O` [Analog 32] (Myristoyl-TPDINPAWYTGRGARPFGRF-NH2): the “% of PrRP31, RC-4B/C rat pituitary cells” value on rat PrRP receptor stood at 68%. Further, in assay [1], the “% of PrRP31 … in CHO cells” value is listed as 46%.

Regarding `CCCCCCCCCCCCCC(=O)N[C@H](C(=O)N1CCC[C@H]1C(=O)N[C@@H](CC(=O)O)C(=O)N[C@H](C(=O)N[C@@H](CC(N)=O)C(=O)N1CCC[C@H]1C(=O)N[C@@H](C)C(=O)N[C@@H](Cc1c[nH]c2ccccc12)C(=O)N[C@@H](Cc1ccc(O)cc1)C(=O)N[C@@H](C)C(=O)N[C@@H](CO)C(=O)N[C@@H](CCCNC(=N)N)C(=O)N1CCC[C@H]1C(=O)N[C@@H](Cc1ccccc1)C(=O)N[C@@H](CCCNC(=N)N)C(=O)N1CCC[C@H]1C(=O)N[C@H](C(=O)NCC(=O)N[C@@H](CCCNC(=N)N)C(=O)N[C@@H](Cc1ccccc1)C(N)=O)C(C)C)[C@@H](C)CC)[C@@H](C)O` [Analog 34] (Myristoyl-TPDINPAWYASRPFRPVGRF-NH2), the “% of PrRP31, RC-4B/C rat pituitary cells” value on rat PrRP receptor was found to be 587%. In assay [1], the “% of PrRP31 … in CHO cells” value worked out at 671%.

Take `CCCC[C@H](N)C(=O)N[C@@H](CCC(=O)O)C(=O)N[C@H](C(=O)N[C@@H](CCCNC(=N)N)C(=O)N[C@H](C(=O)N1CCC[C@H]1C(=O)N[C@@H](CC(=O)O)C(=O)N[C@H](C(=O)N[C@@H](CC(N)=O)C(=O)N1CCC[C@H]1C(=O)N[C@@H](C)C(=O)N[C@@H](Cc1c[nH]c2ccccc12)C(=O)N[C@@H](Cc1ccc(O)cc1)C(=O)N[C@H](C(=O)NCC(=O)N[C@@H](CCCNC(=N)N)C(=O)NCC(=O)N[C@H](C(=O)N[C@@H](CCCNC(=N)N)C(=O)N1CCC[C@H]1C(=O)N[C@H](C(=O)NCC(=O)N[C@@H](CCCNC(=N)N)C(=O)N[C@@H](Cc1ccccc1)C(N)=O)C(C)C)[C@@H](C)CC)[C@@H](C)O)[C@@H](C)CC)[C@@H](C)O)[C@@H](C)O` [Analog 35] (H-[Nle]ETRTPDINPAWYTGRGIRPVGRF-NH2): the “% of PrRP31, RC-4B/C rat pituitary cells” value at rat PrRP receptor is 168%. In assay [1], the “% of PrRP31 … in CHO cells” value is listed as 113%.

Take `CCCCCCCCCCCCCC(=O)N[C@@H](CCCC)C(=O)N[C@@H](CCC(=O)O)C(=O)N[C@H](C(=O)N[C@@H](CCCNC(=N)N)C(=O)N[C@H](C(=O)N1CCC[C@H]1C(=O)N[C@@H](CC(=O)O)C(=O)N[C@H](C(=O)N[C@@H](CC(N)=O)C(=O)N1CCC[C@H]1C(=O)N[C@@H](C)C(=O)N[C@@H](Cc1c[nH]c2ccccc12)C(=O)N[C@@H](Cc1ccc(O)cc1)C(=O)N[C@H](C(=O)NCC(=O)N[C@@H](CCCNC(=N)N)C(=O)NCC(=O)N[C@H](C(=O)N[C@@H](CCCNC(=N)N)C(=O)N1CCC[C@H]1C(=O)N[C@H](C(=O)NCC(=O)N[C@@H](CCCNC(=N)N)C(=O)N[C@@H](Cc1ccccc1)C(N)=O)C(C)C)[C@@H](C)CC)[C@@H](C)O)[C@@H](C)CC)[C@@H](C)O)[C@@H](C)O` [Analog 36] (Myristoyl-[Nle]ETRTPDINPAWYTGRGIRPVGRF-NH2): the “% of PrRP31, RC-4B/C rat pituitary cells” value on rat PrRP receptor is on record as 1096%. Besides, the “% of PrRP31 … in CHO cells” value in assay [1] worked out at 71%.

Regarding `CCCCCCCCCCCCCC(=O)N[C@@H](CCC(N)=O)C(=O)N[C@@H](Cc1c[nH]cn1)C(=O)N[C@@H](CO)C(=O)N[C@@H](CCSC)C(=O)N[C@@H](CCC(=O)O)C(=O)N[C@H](C(=O)N[C@@H](CCCNC(=N)N)C(=O)N[C@H](C(=O)N1CCC[C@H]1C(=O)N[C@@H](CC(=O)O)C(=O)N[C@H](C(=O)N[C@@H](CC(N)=O)C(=O)N1CCC[C@H]1C(=O)N[C@@H](C)C(=O)N[C@@H](Cc1c[nH]c2ccccc12)C(=O)N[C@@H](Cc1ccc(O)cc1)C(=O)N[C@H](C(=O)NCC(=O)N[C@@H](CCCNC(=N)N)C(=O)NCC(=O)N[C@H](C(=O)N[C@@H](CCCNC(=N)N)C(=O)N1CCC[C@H]1C(=O)N[C@H](C(=O)NCC(=O)N[C@@H](CCCNC(=N)N)C(=O)N[C@@H](Cc1ccccc1)C(N)=O)C(C)C)[C@@H](C)CC)[C@@H](C)O)[C@@H](C)CC)[C@@H](C)O)[C@@H](C)O` [Analog 38] (Myristoyl-QHSMETRTPDINPAWYTGRGIRPVGRF-NH2), the “% of PrRP31, RC-4B/C rat pituitary cells” value on rat PrRP receptor was found to be 1332%. Also, the “% of PrRP31 … in CHO cells” value in assay [1] is recorded as 56%.

With “QHSMETRTPDINPAWYTGRGIRPVGRF-NH2 [Analog 37]”, the “% of PrRP31, RC-4B/C rat pituitary cells” value on rat PrRP receptor was found to be 189%. Besides, the “% of PrRP31 … in CHO cells” value in assay [1] was determined as 66%.

For TPDINPAWYASRPFRPVGRF-NH2 [Analog 33], the “% of PrRP31, RC-4B/C rat pituitary cells” value at rat PrRP receptor is given as 230%. Further, the “% of PrRP31 … in CHO cells” value in assay [1] is reported as 225%.

Regarding TPDINPAWYTGRGARPFGRF-NH2 [Analog 31], the “% of PrRP31, RC-4B/C rat pituitary cells” value at rat PrRP receptor is on record as 0.8%. Besides, in assay [1], the “% of PrRP31 … in CHO cells” value is 0.7%.
